Each structure is given as a SMILES string.

Data on 11 compounds can be found in US20260355212A1 (priority 2022, published 2026).

The target of one assay is MERS Mpro (Middle East respiratory syndrome-related coronavirus, UniProt K9N7C7). In words: biochemical. Set-up: species or system MERS-CoV.
The target of another assay is HCoV-229E Mpro (Human coronavirus 229E, UniProt P0C6X1). The assay is described as follows: HCoV-229E Mpro enzymatic inhibition assay (fluorescence). Format: biochemical.
In the next assay the target is HCoV-NL63 Mpro (Human coronavirus NL63, UniProt P0C6X5). The assay is described as follows: HCoV-NL63 Mpro enzymatic inhibition assay (fluorescence). Format: biochemical. Summed up: (§1)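 Recombinant Mpro from E. coli was pre-incubated with compound (3-fold, 10-point dilutions, duplicates) for 30 min at room temperature, then fluorogenic peptide substrate was added and fluorescence read at Ex/Em 340/490 nm after 60 min at 30 °C. IC50 came from four-parameter fits of background-corrected inhibition.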

For a further assay, the target named is HCoV-OC43 Mpro (Human coronavirus OC43, UniProt P0C6X6). In words: HCoV-OC43 Mpro enzymatic inhibition assay (fluorescence). The class given is biochemical. Summed up:
as §1

The target of a further assay is HCoV-HKU1 Mpro (Human coronavirus HKU1, UniProt P0C6X2). In words: HCoV-HKU1 Mpro enzymatic inhibition assay (fluorescence). The class given is biochemical. Summed up:
as §1

The next assay deals with SARS-CoV-2 Mpro (Severe acute respiratory syndrome coronavirus 2, UniProt P0DTD1). In words: SARS-CoV-2 Mpro enzymatic inhibition assay (fluorescence). Format: biochemical. Summed up:
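A fluorescence readout (340 nm excitation, 490 nm emission) was taken after the substrate reaction ran 60 min at 30° C. Before substrate addition, E. coli-expressed protease and compound (3-fold dilutions, 10 doses, duplicates) sat together 30 min at room temperature. Percent inhibition was fitted by variable-slope nonlinear regression to give IC50.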

The next assay concerns the target SARS-CoV-1 Mpro (Severe acute respiratory syndrome coronavirus, UniProt P0C6X7). In words: biochemical.

Chain of HCoV-HKU1 Mpro (P0C6X2 3335-3637 limits assumed): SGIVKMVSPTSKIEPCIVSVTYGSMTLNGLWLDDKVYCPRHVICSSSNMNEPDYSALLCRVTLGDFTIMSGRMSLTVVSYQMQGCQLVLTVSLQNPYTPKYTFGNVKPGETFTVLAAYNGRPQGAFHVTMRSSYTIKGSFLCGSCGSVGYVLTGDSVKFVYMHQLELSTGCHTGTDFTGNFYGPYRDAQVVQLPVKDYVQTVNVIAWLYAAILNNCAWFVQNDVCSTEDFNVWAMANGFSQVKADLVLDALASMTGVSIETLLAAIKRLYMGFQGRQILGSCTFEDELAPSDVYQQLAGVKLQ
Chain of HCoV-OC43 Mpro (P0C6X6 3247-3549 limits assumed): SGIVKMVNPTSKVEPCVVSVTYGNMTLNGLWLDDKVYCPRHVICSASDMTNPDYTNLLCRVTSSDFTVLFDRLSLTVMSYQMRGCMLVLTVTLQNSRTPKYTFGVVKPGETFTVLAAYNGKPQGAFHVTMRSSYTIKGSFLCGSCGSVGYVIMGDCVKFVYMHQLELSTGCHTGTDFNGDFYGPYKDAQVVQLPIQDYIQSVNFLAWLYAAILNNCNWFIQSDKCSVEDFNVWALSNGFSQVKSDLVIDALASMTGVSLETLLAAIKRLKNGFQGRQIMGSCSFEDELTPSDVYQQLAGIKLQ
Chain of HCoV-NL63 Mpro (P0C6X5 2940-3242 limits assumed): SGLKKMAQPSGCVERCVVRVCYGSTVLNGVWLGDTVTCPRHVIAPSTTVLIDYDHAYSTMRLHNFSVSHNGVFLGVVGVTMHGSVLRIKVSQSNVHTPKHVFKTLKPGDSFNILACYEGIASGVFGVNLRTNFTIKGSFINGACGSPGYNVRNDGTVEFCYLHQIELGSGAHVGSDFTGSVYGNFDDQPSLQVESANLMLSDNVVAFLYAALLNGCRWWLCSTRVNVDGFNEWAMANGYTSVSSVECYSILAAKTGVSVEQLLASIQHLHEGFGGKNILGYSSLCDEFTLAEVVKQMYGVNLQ
Chain of MERS Mpro (K9N7C7 3248-3553 limits assumed): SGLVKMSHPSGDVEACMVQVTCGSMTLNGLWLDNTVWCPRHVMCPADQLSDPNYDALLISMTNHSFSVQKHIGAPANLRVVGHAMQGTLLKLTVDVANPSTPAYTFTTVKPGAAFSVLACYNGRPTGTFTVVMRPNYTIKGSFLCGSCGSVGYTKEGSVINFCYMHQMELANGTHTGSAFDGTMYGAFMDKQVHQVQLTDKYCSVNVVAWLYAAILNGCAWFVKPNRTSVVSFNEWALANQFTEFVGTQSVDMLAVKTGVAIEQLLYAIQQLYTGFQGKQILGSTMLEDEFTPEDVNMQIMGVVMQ
Chain of HCoV-229E Mpro (P0C6X1 2966-3267 limits assumed): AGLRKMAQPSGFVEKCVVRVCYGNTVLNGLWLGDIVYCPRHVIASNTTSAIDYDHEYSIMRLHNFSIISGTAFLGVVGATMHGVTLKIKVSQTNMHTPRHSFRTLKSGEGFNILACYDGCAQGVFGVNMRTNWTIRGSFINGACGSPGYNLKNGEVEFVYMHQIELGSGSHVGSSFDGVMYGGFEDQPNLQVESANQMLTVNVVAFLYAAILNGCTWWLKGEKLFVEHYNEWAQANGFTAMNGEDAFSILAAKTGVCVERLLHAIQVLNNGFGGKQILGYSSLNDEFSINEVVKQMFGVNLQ

Turning to `O=C[C@H](C[C@@H]1CCNC1=O)NC(=O)[C@@H]1C[C@@H]2CCC[C@@H]2N1C(=O)c1cc2ccccc2[nH]1` [Compound 129, (2S,3aS,6aS)-1-(1H-Indole-2-carbonyl)-N—((S)-1-oxo-3-((S)-2-oxopyrrolidin-3-yl)propan-2-yl)octahydrocyclopenta[b]pyrrole-2-carboxamide], the IC50 (as a rule, the midpoint of a concentration-inhibition curve) against MERS Mpro was 1110 nM; at HCoV-229E Mpro, 38 nM; on HCoV-NL63 Mpro, 51 nM; at HCoV-OC43 Mpro it was 166 nM; on HCoV-HKU1 Mpro it was 76 nM; on SARS-CoV-2 Mpro, 351 nM. This compound yielded a 50% inhibitory concentration (IC50) on SARS-CoV-1 Mpro of 874 nM.
As for `Cc1ccc(F)c2[nH]c(C(=O)N3C[C@H]4[C@@H]([C@H]3C(=O)N[C@H](C=O)C[C@@H]3CCNC3=O)C4(C)C)cc12` [Compound 77, (1R,2S,5S)-3-(7-Fluoro-4-methyl-1H-indole-2-carbonyl)-6,6-dimethyl-N—((S)-1-oxo-3-((S)-2-oxopyrrolidin-3-yl)propan-2-yl)-3-azabicyclo[3.1.0]hexane-2-carboxamide], the half-maximal inhibitory concentration (IC50) at MERS Mpro amounted to 401 nM; against HCoV-229E Mpro, 41.9 nM; at HCoV-NL63 Mpro, 99.2 nM; against HCoV-OC43 Mpro, 83.8 nM; against HCoV-HKU1 Mpro it was 45.3 nM; against SARS-CoV-2 Mpro, 33.1 nM. This compound registered an IC50 against SARS-CoV-1 Mpro of 27.6 nM.
With `CC1(C)[C@@H]2[C@@H](C(=O)N[C@H](C=O)C[C@@H]3CCNC3=O)N(C(=O)c3cc4ccc(C#N)cc4[nH]3)C[C@@H]21` [Compound 74, (1R,2S,5S)-3-(6-Cyano-1H-indole-2-carbonyl)-6,6-dimethyl-N—((S)-1-oxo-3-((S)-2-oxopyrrolidin-3-yl)propan-2-yl)-3-azabicyclo[3.1.0]hexane-2-carboxamide], the concentration for half-maximal inhibition (IC50) against MERS Mpro is 479 nM; against HCoV-229E Mpro, 55.3 nM; on HCoV-NL63 Mpro, 86.8 nM; at HCoV-OC43 Mpro, 86.4 nM; against HCoV-HKU1 Mpro, 40.9 nM; at SARS-CoV-2 Mpro it was 32 nM. Half-maximal inhibition against SARS-CoV-1 Mpro (IC50) required 61.4 nM.
On to `Cn1c(C(=O)N2C[C@H]3[C@@H]([C@H]2C(=O)N[C@H](C=O)C[C@@H]2CCNC2=O)C3(C)C)cc2c(F)cccc21` [Compound 100, (1R,2S,5S)-3-(4-Fluoro-1-methyl-1H-indole-2-carbonyl)-6,6-dimethyl-N—((S)-1-oxo-3-((S)-2-oxopyrrolidin-3-yl)propan-2-yl)-3-azabicyclo[3.1.0]hexane-2-carboxamide], for which the IC50 on MERS Mpro worked out at 877 nM; on HCoV-229E Mpro, 106 nM; on HCoV-NL63 Mpro it was 398 nM; against HCoV-OC43 Mpro it was 133 nM; at HCoV-HKU1 Mpro, 94.4 nM; against SARS-CoV-2 Mpro, 54 nM. The compound further showed an IC50 at SARS-CoV-1 Mpro of 92.5 nM.
On to `CC1(C)[C@@H]2[C@@H](C(=O)N[C@H](C=O)C[C@@H]3CCNC3=O)N(C(=O)CC3CCC(F)(F)CC3)C[C@@H]21` [Compound 16, (1R,2S,5S)-3-(2-(4,4-difluorocyclohexyl)acetyl)-6,6-dimethyl-N—((S)-1-oxo-3-((S)-2-oxopyrrolidin-3-yl)propan-2-yl)-3-azabicyclo[3.1.0]hexane-2-carboxamide], for which the half-inhibitory concentration (IC50) against MERS Mpro stood at 157 nM; at HCoV-229E Mpro it was 24.9 nM; against HCoV-NL63 Mpro, 28.9 nM; against HCoV-OC43 Mpro, 30.5 nM; against HCoV-HKU1 Mpro, 12.5 nM; against SARS-CoV-2 Mpro, 14.6 nM. In addition, the IC50 at SARS-CoV-1 Mpro came to 23.5 nM.
Take `CC1(C)[C@@H]2[C@@H](C(=O)N[C@H](C=O)C[C@@H]3CCCNC3=O)N(C(=O)c3cc4cccc(Cl)c4[nH]3)C[C@@H]21` [Compound 25, (1R,2S,5S)-3-(7-chloro-1H-indole-2-carbonyl)-6,6-dimethyl-N—((S)-1-oxo-3-((S)-2-oxopiperidin-3-yl)propan-2-yl)-3-azabicyclo[3.1.0]hexane-2-carboxamide]: the IC50 at MERS Mpro was 140 nM; at HCoV-229E Mpro, 33.8 nM; on HCoV-NL63 Mpro, 53.8 nM; on HCoV-OC43 Mpro, 43 nM; on HCoV-HKU1 Mpro it was 30.2 nM; at SARS-CoV-2 Mpro, 16.7 nM. The same compound showed an IC50 at SARS-CoV-1 Mpro of 24 nM.
Turning to `CC1(C)[C@@H]2[C@@H](C(=O)N[C@H](C=O)C[C@@H]3CCNC3=O)N(C(=O)c3cc4c(Cl)cc(Cl)cc4[nH]3)C[C@@H]21` [Compound 97, (1R,2S,5S)-3-(4,6-Dichloro-1H-indole-2-carbonyl)-6,6-dimethyl-N—((S)-1-oxo-3-((S)-2-oxopyrrolidin-3-yl)propan-2-yl)-3-azabicyclo[3.1.0]hexane-2-carboxamide], the concentration for half-maximal inhibition (IC50) against MERS Mpro is 395 nM; against HCoV-229E Mpro, 46 nM; at HCoV-NL63 Mpro, 88.9 nM; on HCoV-OC43 Mpro, 72 nM; on HCoV-HKU1 Mpro, 27 nM; on SARS-CoV-2 Mpro, 49.9 nM. This compound had an IC50 at SARS-CoV-1 Mpro of 75.4 nM.
`C[C@@H](C(=O)N1C[C@H]2[C@@H]([C@H]1C(=O)N[C@H](C=O)C[C@@H]1CCNC1=O)C2(C)C)C1CCCCC1` [Compound 67, (1R,2S,5S)-3-((R)-2-Cyclohexylpropanoyl)-6,6-dimethyl-N—((S)-1-oxo-3-((S)-2-oxopyrrolidin-3-yl)propan-2-yl)-3-azabicyclo[3.1.0]hexane-2-carboxamide]: the IC50 came out at 170 nM against MERS Mpro; 27.3 nM at HCoV-229E Mpro; 51.8 nM on HCoV-NL63 Mpro; 33.2 nM at HCoV-OC43 Mpro; 10.8 nM against HCoV-HKU1 Mpro; 27.8 nM against SARS-CoV-2 Mpro. In addition, the IC50 against SARS-CoV-1 Mpro was determined as 44.1 nM.
Take `O=C[C@H](C[C@@H]1CCNC1=O)NC(=O)[C@@H]1CC2(CCC2)CN1C(=O)c1cc2ccccc2[nH]1` [Compound 10, (S)-6-(1H-indole-2-carbonyl)-N—((S)-1-oxo-3-((S)-2-oxopyrrolidin-3-yl)propan-2-yl)-6-azaspiro[3.4]octane-7-carboxamide]: the IC50 against MERS Mpro is 194 nM; against HCoV-229E Mpro it was 32.3 nM; against HCoV-NL63 Mpro it was 45 nM; against HCoV-OC43 Mpro, 35.8 nM; on HCoV-HKU1 Mpro it was 17.7 nM; at SARS-CoV-2 Mpro, 12.3 nM. Further, the IC50 on SARS-CoV-1 Mpro was 45.3 nM.
Regarding `CCOc1ccc2[nH]c(C(=O)N3C[C@H]4[C@@H]([C@H]3C(=O)N[C@H](C=O)C[C@@H]3CCNC3=O)C4(C)C)cc2c1` [Compound 111, (1R,2S,5S)-3-(5-Ethoxy-1H-indole-2-carbonyl)-6,6-dimethyl-N—((S)-1-oxo-3-((S)-2-oxopyrrolidin-3-yl)propan-2-yl)-3-azabicyclo[3.1.0]hexane-2-carboxamide], the IC50 at MERS Mpro came to 866 nM; on HCoV-229E Mpro, 83.3 nM; at HCoV-NL63 Mpro, 135 nM; against HCoV-OC43 Mpro, 169 nM; against HCoV-HKU1 Mpro, 73.3 nM; on SARS-CoV-2 Mpro it was 84.1 nM. On SARS-CoV-1 Mpro, this compound came in with an IC50 of 119 nM.
Consider `CC1(C)[C@@H]2[C@@H](C(=O)N[C@H](C#N)C[C@@H]3CCNC3=O)N(C(=O)C3(c4ccccc4)CC3)C[C@@H]21` [Compound 135, (1R,2S,5S)—N—((S)-1-Cyano-2-((S)-2-oxopyrrolidin-3-yl)ethyl)-6,6-dimethyl-3-(1-phenylcyclopropanecarbonyl)-3-azabicyclo[3.1.0]hexane-2-carboxamide], for which the IC50 against MERS Mpro is 4540 nM; against HCoV-229E Mpro, 3460 nM; at HCoV-NL63 Mpro it was 11800 nM; against HCoV-OC43 Mpro it was 1870 nM; at HCoV-HKU1 Mpro, 766 nM; against SARS-CoV-2 Mpro, 468 nM. Besides, half-maximal inhibition on SARS-CoV-1 Mpro (IC50) was put at 571 nM.
